Laboratory results as given in ChEMBL document CHEMBL1275453, “Resistance trends of the Bacteroides fragilis group over a 10-year period, 1997 to 2006, in Madrid, Spain” (2008).
In brackets after ≈: the same amount, converted by molar mass.

Assays:
Type in all cases: functional
[1] = test system: Bacteroides fragilis; test: Antibacterial activity against Bacteroides fragilis assessed as percent resistant isolates
[2] = test system: Bacteroides fragilis; test: Antibacterial activity against Bacteroides fragilis assessed as percent resistant isolates by agar dilution method
[3] = test system: Parabacteroides distasonis; test: Antibacterial activity against Bacteroides distasonis assessed as percent resistant isolates by agar dilution method
[4] = test system: Bacteroides stercoris; test: Antibacterial activity against Bacteroides stercoris assessed as percent resistant isolates by agar dilution method; conditions: pooled result: one value given for 4 cell lines, strains, targets or settings
[5] = test system: Phocaeicola vulgatus; test: Antibacterial activity against Bacteroides vulgatus assessed as percent resistant isolates by agar dilution method
[6] = test system: Bacteroides thetaiotaomicron; test: Antibacterial activity against Bacteroides thetaiotaomicron isolate by agar dilution method
[7] = test system: Bacteroides eggerthii; test: Antibacterial activity against Bacteroides eggerthii isolate by agar dilution method
[8] = test system: Bacteroides stercoris; test: Antibacterial activity against Bacteroides stercoris isolate by agar dilution method
[9] = test system: Bacteroides uniformis; test: Antibacterial activity against Bacteroides uniformis isolate by agar dilution method
[10] = test system: Parabacteroides distasonis; test: Antibacterial activity against Bacteroides distasonis isolate by agar dilution method
[11] = test system: Phocaeicola vulgatus; test: Antibacterial activity against Bacteroides vulgatus isolate by agar dilution method
[12] = test system: Bacteroides caccae; test: Antibacterial activity against Bacteroides caccae isolate by agar dilution method
[13] = test system: Bacteroides uniformis; test: Antibacterial activity against Bacteroides uniformis assessed as percent resistant isolates by agar dilution method
[14] = test system: Bacteroides thetaiotaomicron; test: Antibacterial activity against Bacteroides thetaiotaomicron assessed as percent resistant isolates by agar dilution method
[15] = test system: Bacteroides sp.; test: Antibacterial activity against Bacteroides spp. isolate by agar dilution method
[16] = test system: Parabacteroides merdae; test: Antibacterial activity against Bacteroides merdae isolate by agar dilution method
[17] = test system: Phocaeicola vulgatus; test: Antibacterial activity against Bacteroides vulgatus assessed as percent resistant isolates
[18] = test system: Bacteroides ovatus; test: Antibacterial activity against Bacteroides ovatus isolate by agar dilution method
[19] = test system: Bacteroides ovatus; test: Antibacterial activity against Bacteroides ovatus assessed as percent resistant isolates by agar dilution method
[20] = test system: Bacteroides caccae; test: Antibacterial activity against Bacteroides caccae assessed as percent resistant isolates by agar dilution method
[21] = test system: Parabacteroides distasonis; test: Antibacterial activity against Bacteroides distasonis assessed as percent resistant isolates by agar dilution method in presence of Tazobactam
[22] = test system: Bacteroides fragilis; test: Antibacterial activity against Bacteroides fragilis assessed as percent resistant isolates by agar dilution method in presence of Tazobactam
[23] = test system: Bacteroides ovatus; test: Antibacterial activity against Bacteroides ovatus assessed as percent resistant isolates by agar dilution method in presence of Tazobactam
[24] = test system: Bacteroides caccae; test: Antibacterial activity against Bacteroides caccae isolate by agar dilution method in presence of Tazobactam
[25] = test system: Bacteroides uniformis; test: Antibacterial activity against Bacteroides uniformis isolate by agar dilution method in presence of Tazobactam
[26] = test system: Bacteroides ovatus; test: Antibacterial activity against Bacteroides ovatus isolate by agar dilution method in presence of Tazobactam
[27] = test system: Bacteroides stercoris; test: Antibacterial activity against Bacteroides stercoris isolate by agar dilution method in presence of Tazobactam
[28] = test system: Bacteroides thetaiotaomicron; test: Antibacterial activity against Bacteroides thetaiotaomicron assessed as percent resistant isolates by agar dilution me in presence of Tazobactam thod
[29] = test system: Parabacteroides distasonis; test: Antibacterial activity against Bacteroides distasonis isolate by agar dilution method in presence of Tazobactam
[30] = test system: Bacteroides eggerthii; test: Antibacterial activity against Bacteroides eggerthii assessed as percent resistant isolates by agar dilution method in presence of Tazobactam
[31] = test system: Bacteroides uniformis; test: Antibacterial activity against Bacteroides uniformis assessed as percent resistant isolates by agar dilution method in presence of Tazobactam
[32] = test system: Bacteroides eggerthii; test: Antibacterial activity against Bacteroides eggerthii isolate by agar dilution method in presence of Tazobactam
[33] = test system: Bacteroides sp.; test: Antibacterial activity against Bacteroides spp. assessed as percent resistant isolates by agar dilution method in presence of Tazobactam
[34] = test system: Phocaeicola vulgatus; test: Antibacterial activity against Bacteroides vulgatus assessed as percent resistant isolates by agar dilution method in presence of Tazobactam
[35] = test system: Parabacteroides merdae; test: Antibacterial activity against Bacteroides merdae isolate by agar dilution method in presence of Tazobactam
[36] = test system: Bacteroides caccae; test: Antibacterial activity against Bacteroides caccae assessed as percent resistant isolates by agar dilution method in presence of Tazobactam
[37] = test system: Bacteroides fragilis; test: Antibacterial activity against Bacteroides fragilis isolate by agar dilution method in presence of Tazobactam
[38] = test system: Bacteroides stercoris; test: Antibacterial activity against Bacteroides stercoris assessed as percent resistant isolates by agar dilution method in presence of Tazobactam
[39] = test system: Bacteroides sp.; test: Antibacterial activity against Bacteroides spp. isolate by agar dilution method in presence of Tazobactam
[40] = test system: Phocaeicola vulgatus; test: Antibacterial activity against Bacteroides vulgatus isolate by agar dilution method in presence of Tazobactam
[41] = test system: Bacteroides thetaiotaomicron; test: Antibacterial activity against Bacteroides thetaiotaomicron isolate by agar dilution method in presence of Tazobactam
[42] = test system: Parabacteroides merdae; test: Antibacterial activity against Bacteroides merdae assessed as percent resistant isolates by agar dilution method in presence of Tazobactam

COc1c(N2C[C@@H]3CCCN[C@@H]3C2)c(F)cc2c(=O)c(C(=O)O)cn(C3CC3)c12 [MOXIFLOXACIN]
Activity [1]: 27.3%
Activity [2]: 9.7%
Activity [3]: 18.6%
Activity [4]: 28.3%
Activity [5]: 17%
MIC50 [6]: 2 µg/mL (≈ 4.98 µM)
MIC90 [6]: 16 µg/mL (≈ 39.9 µM)
MIC50 [7]: 2 µg/mL (≈ 4.98 µM)
MIC90 [7]: 16 µg/mL (≈ 39.9 µM)
MIC50 [8]: 2 µg/mL (≈ 4.98 µM)
MIC90 [8]: 16 µg/mL (≈ 39.9 µM)
MIC50 [9]: 2 µg/mL (≈ 4.98 µM)
MIC90 [9]: 32 µg/mL (≈ 79.7 µM)
MIC50 [10]: 1 µg/mL (≈ 2.49 µM)
MIC90 [10]: 16 µg/mL (≈ 39.9 µM)
MIC50 [11]: 2 µg/mL (≈ 4.98 µM)
MIC90 [11]: 16 µg/mL (≈ 39.9 µM)
MIC50 [12]: 2 µg/mL (≈ 4.98 µM)
MIC90 [12]: 32 µg/mL (≈ 79.7 µM)
Activity [13]: 24.5%
Activity [14]: 17%
MIC50 [15]: 2 µg/mL (≈ 4.98 µM)
MIC90 [15]: 16 µg/mL (≈ 39.9 µM)
MIC50 [16]: 2 µg/mL (≈ 4.98 µM)
MIC90 [16]: 16 µg/mL (≈ 39.9 µM)
Activity [17]: 54.7%
MIC50 [18]: 2 µg/mL (≈ 4.98 µM)
MIC90 [18]: 32 µg/mL (≈ 79.7 µM)
Activity [19]: 24.4%
Activity [20]: 22.2%

CCN1CCN(C(=O)N[C@@H](C(=O)N[C@@H]2C(=O)N3[C@@H]2SC(C)(C)[C@@H]3C(=O)O)c2ccccc2)C(=O)C1=O [PIPERACILLIN]
Activity [21]: 0%
Activity [22]: 0.5%
Activity [23]: 0%
MIC50 [24]: 8 µg/mL
MIC90 [24]: 32 µg/mL
MIC50 [25]: 4 µg/mL
MIC90 [25]: 16 µg/mL
MIC50 [26]: 8 µg/mL
MIC90 [26]: 16 µg/mL
MIC50 [27]: 8 µg/mL
MIC90 [27]: 32 µg/mL
Activity [28]: 3.3%
MIC50 [29]: 16 µg/mL
MIC90 [29]: 16 µg/mL
Activity [30]: 0%
Activity [31]: 0%
MIC50 [32]: 8 µg/mL
MIC90 [32]: 32 µg/mL
Activity [33]: 0%
Activity [34]: 0%
MIC50 [35]: 8 µg/mL
MIC90 [35]: 32 µg/mL
Activity [36]: 2.2%
MIC50 [37]: 1 µg/mL
MIC90 [37]: 8 µg/mL
Activity [38]: 0%
MIC50 [39]: 8 µg/mL
MIC90 [39]: 32 µg/mL
MIC50 [40]: 8 µg/mL
MIC90 [40]: 32 µg/mL
MIC50 [41]: 16 µg/mL
MIC90 [41]: 32 µg/mL
Activity [42]: 0%
